Results as given in patent US20190365743A1, “HEDGEHOG PATHWAY INHIBITION FOR TREATMENT OF HIGH-RISK BASAL CELL CARCINOMA OR HIGH-RISK BASAL CELL CARCINOMA NEVUS SYNDROME” (HEDGEPATH PHARMACEUTICALS, INC., priority 2018, published 2019).

Test: plasma trough level of itraconazole required for clinical benefit, and side effects of high doses, in humans with cancer
Assay type: in vivo
Procedure: In particular, the minimum plasma trough level after 4 weeks of therapy required to have a clinically significant effect was at least 1000 ng/ml. […] These side effects associated with these high doses of itraconazole can be effectively managed by giving a selective mineralocorticoid antagonist, such as eplerenone. Accordingly, in some embodiments, the method further comprises administering eplerenone or other mineralocorticoid inhibitor.

CCC(C)n1ncn(-c2ccc(N3CCN(c4ccc(OCC5COC(Cn6cncn6)(c6ccc(Cl)cc6Cl)O5)cc4)CC3)cc2)c1=O (centres unmarked) [itraconazole]
side-effects peculiar to high doses (high doses giving plasma trough of at least 1000 ng/ml): hypertension, peripheral edema, and hypokalemia | concentration at 4 weeks (human, plasma, after 4 weeks of therapy, humans with cancer, read-out: minimum plasma trough level required to have a clinically significant effect): ≥ 1000 ng/mL
